Assay results taken from patent US6492419B1, “Aqueous insecticidal pour-on formulation” (Schering-Plough Animal Health Corp., priority 1997, dated 2002).

Legend:
Format in all cases: in vivo
[1] = Tissue residues after aqueous pour-on, sheep; details: 20 mg/kg pour-on, LOQ = 0.02 mg/kg
Protocol: (§1) Tissue residue studies were carried out following application of the aqueous pour-on to both sheep and cattle (Reference is made to page 1, lines 34 and 35 where it is mentioned that treatment with non aqueous pour-on formulations can lead to high tissue residues in animals treated with these formulations.)

sheep lice = assay: Field efficacy (control of sheep lice); details: 25 g/L; for Pre treatment mean lice count: baseline
[2] = system: Bovicola ovis (Schrank), sheep body louse; assay: Pen trial of diflubenzuron pour-on against sheep lice (Examples 2-4); details: for % Lice reduction: corrected lice counts
From the text: Order—Phthiraptera, Sub Order—Mallophaga, Family—Trichodectidae, Genus—Damalinia (Bovicola, Trichodectes), Species—Bovicola ovis (Schrank) and Common name—Sheep body louse.
The sheep used in this study were a uniform line of Merino wethers heavily infected with lice.
The method requires examination of twenty partings each 10 cm long, along two contours on the left and right sides covering the wool growing regions of the animal. At each of the 40 recorded sites all live adult lice are counted. Site counts are summed to give a total count for the animal.
Within 24 hours of shearing, treatments were applied as a single stripe along the backline of the sheep. The dose rate applied was based on 20 mL of treatment per animal which is based on all test animals being in the 30.1-55 kg weight range.
The delivery apparatus for each formulation was a commercial applicator, set to deliver 1×20 mL doses to the sheep backline. The gun was calibrated using a volumetric cylinder and checked twice before and once after treatment.
To avoid the possibility of rain complicating the post treatment situation the sheep were kept in pens for a minimum of 48 hours. Then on the morning of the 25 th day of the trial, they were placed into their paddocks. […]

[3] = Tissue residues after aqueous pour-on, cattle; details: 15 mg/kg pour-on, LOQ = 0.02 mg/kg
Protocol: as §1

O=C(NC(=O)c1c(F)cccc1F)Nc1ccc(Cl)cc1 [Diflubenzuron, diflubenzuron]
Level of diflubenzuron residues in tissues, Kidney ([1]; 1 day post treatment): <LOQ | Level of diflubenzuron residues in tissues, Liver ([1]; 1 day post treatment): <LOQ | Level of diflubenzuron residues in tissues, Muscle ([1]; 1 day post treatment): <LOQ | Level of diflubenzuron residues in tissues, Inguinal fat ([1]; 1 day post treatment, max): ≤ 0.02 max mg/kg | Level of diflubenzuron residues in tissues, peri-renal fat ([1]; 1 day post treatment, max): ≤ 0.03 max mg/kg | Level of diflubenzuron residues in tissues, Kidney ([1]; 3 days post treatment): <LOQ | Level of diflubenzuron residues in tissues, Liver ([1]; 3 days post treatment): <LOQ | Level of diflubenzuron residues in tissues, Muscle ([1]; 3 days post treatment): <LOQ | Level of diflubenzuron residues in tissues, Inguinal fat ([1]; 3 days post treatment, max): ≤ 0.04 max mg/kg | Level of diflubenzuron residues in tissues, peri-renal fat ([1]; 3 days post treatment, max): ≤ 0.02 max mg/kg | Level of diflubenzuron residues in tissues, Kidney ([1]; 7 days post treatment): <LOQ | Level of diflubenzuron residues in tissues, Liver ([1]; 7 days post treatment): <LOQ | Level of diflubenzuron residues in tissues, Muscle ([1]; 7 days post treatment): <LOQ | Level of diflubenzuron residues in tissues, Inguinal fat ([1]; 7 days post treatment, max): ≤ 0.03 max mg/kg | Level of diflubenzuron residues in tissues, peri-renal fat ([1]; 7 days post treatment, max): ≤ 0.02 max mg/kg | Level of diflubenzuron residues in tissues, Kidney ([1]; 14 days post treatment): <LOQ | Level of diflubenzuron residues in tissues, Liver ([1]; 14 days post treatment): <LOQ | Level of diflubenzuron residues in tissues, Muscle ([1]; 14 days post treatment): <LOQ | Level of diflubenzuron residues in tissues, peri-renal fat ([1]; 14 days post treatment): <LOQ | Level of diflubenzuron residues in tissues, Inguinal fat ([1]; 14 days post treatment, max): ≤ 0.02 max mg/kg | Level of diflubenzuron residues in tissues, Kidney ([1]; 21 days post treatment): <LOQ | Level of diflubenzuron residues in tissues, Liver ([1]; 21 days post treatment): <LOQ | Level of diflubenzuron residues in tissues, Muscle ([1]; 21 days post treatment): <LOQ | Level of diflubenzuron residues in tissues, peri-renal fat ([1]; 21 days post treatment): <LOQ | Level of diflubenzuron residues in tissues, Inguinal fat ([1]; 21 days post treatment, max): ≤ 0.05 max mg/kg | Level of diflubenzuron residues in tissues, Inguinal fat ([1]; 42 days post treatment): <LOQ | Level of diflubenzuron residues in tissues, Kidney ([1]; 42 days post treatment): <LOQ | Level of diflubenzuron residues in tissues, Liver ([1]; 42 days post treatment): <LOQ | Level of diflubenzuron residues in tissues, Muscle ([1]; 42 days post treatment): <LOQ | Level of diflubenzuron residues in tissues, peri-renal fat ([1]; 42 days post treatment): <LOQ | % Lice reduction (sheep lice; Trial 1, Uraila, N.S.W., 1309 fine wool merinos, after 6 weeks): 98.1% | % Lice reduction (sheep lice; Trial 1, Uraila, N.S.W., 1309 fine wool merinos, after 12 weeks): 98.7% | % Lice reduction (sheep lice; Trial 1, Uraila, N.S.W., 1309 fine wool merinos, after 20 weeks): 100% | Pre treatment mean lice count (sheep lice; Trial 1, Uraila, N.S.W., 1309 fine wool merinos): 156 | % Lice reduction (sheep lice; Trial 2, Guyra, N.S.W., 2000 super fine wool, after 6 weeks): 100% | % Lice reduction (sheep lice; Trial 2, Guyra, N.S.W., 2000 super fine wool, after 12 weeks): 100% | % Lice reduction (sheep lice; Trial 2, Guyra, N.S.W., 2000 super fine wool, after 20 weeks): 100% | Pre treatment mean lice count (sheep lice; Trial 2, Guyra, N.S.W., 2000 super fine wool): 41 | % Lice reduction (sheep lice; Trial 3, Crookwell, N.S.W., 680 medium fine wool merinos, after 6 weeks): 91.3% | % Lice reduction (sheep lice; Trial 3, Crookwell, N.S.W., 680 medium fine wool merinos, after 12 weeks): 99.6% | % Lice reduction (sheep lice; Trial 3, Crookwell, N.S.W., 680 medium fine wool merinos, after 20 weeks): 100% | Pre treatment mean lice count (sheep lice; Trial 3, Crookwell, N.S.W., 680 medium fine wool merinos): 242 | % Lice reduction (sheep lice; Trial 4, Lucindale, N.S.W, 1094 strong wool merinos, after 6 weeks): 99.8% | % Lice reduction (sheep lice; Trial 4, Lucindale, N.S.W, 1094 strong wool merinos, after 12 weeks): 100% | % Lice reduction (sheep lice; Trial 4, Lucindale, N.S.W, 1094 strong wool merinos, after 20 weeks): 100% | Pre treatment mean lice count (sheep lice; Trial 4, Lucindale, N.S.W, 1094 strong wool merinos): 35 | % Lice reduction (sheep lice; Trial 5, Coonalpyn, S.A., 1101 strong wool merinos, after 6 weeks): 99.6% | % Lice reduction (sheep lice; Trial 5, Coonalpyn, S.A., 1101 strong wool merinos, after 12 weeks): 100% | % Lice reduction (sheep lice; Trial 5, Coonalpyn, S.A., 1101 strong wool merinos, after 20 weeks): 100% | Pre treatment mean lice count (sheep lice; Trial 5, Coonalpyn, S.A., 1101 strong wool merinos): 142 | % Lice reduction (sheep lice; Trial 6, Lismore, Vic, 812 super fine merinos, after 6 weeks): 99.5% | % Lice reduction (sheep lice; Trial 6, Lismore, Vic, 812 super fine merinos, after 12 weeks): 100% | % Lice reduction (sheep lice; Trial 6, Lismore, Vic, 812 super fine merinos, after 20 weeks): 100% | Pre treatment mean lice count (sheep lice; Trial 6, Lismore, Vic, 812 super fine merinos): 51 | lice killed ([2]; 12.5 and 25.0 g/L, 20 ml dose along the backline of sheep, within 10 weeks of application): 95% | lice kills ([2]; 12.5 and 25.0 g/L, 20 ml dose along the backline of sheep, within 20 weeks): 100% | % Lice reduction ([2]; 12.5 g/L pour-on, sheep, after 2 weeks): 91.0% | % Lice reduction ([2]; 12.5 g/L pour-on, sheep, after 5 weeks): 94.9% | % Lice reduction ([2]; 12.5 g/L pour-on, sheep, after 10 weeks): 98.9% | % Lice reduction ([2]; 12.5 g/L pour-on, sheep, after 15 weeks): 100.0% | % Lice reduction ([2]; 12.5 g/L pour-on, sheep, after 20 weeks): 100.0% | Mean Lice Counts ([2]; 12.5 g/L, 20 mL backline (250 mg per sheep), 5 Merino wethers, week 0 (baseline)): 161.8 | Mean Lice Counts ([2]; 12.5 g/L, 20 mL backline, sheep, 2 weeks after treatment): 6.8 | Mean Lice Counts ([2]; 12.5 g/L, 20 mL backline, sheep, 5 weeks after treatment): 1.8 | Mean Lice Counts ([2]; 12.5 g/L, 20 mL backline, sheep, 10 weeks after treatment): 0.4 | Mean Lice Counts ([2]; 12.5 g/L, 20 mL backline, sheep, 15 weeks after treatment): 0.0 | Mean Lice Counts ([2]; 12.5 g/L, 20 mL backline, sheep, 20 weeks after treatment): 0.0 | % Lice reduction ([2]; 25.0 g/L pour-on, sheep, after 2 weeks): 69.6% | % Lice reduction ([2]; 25.0 g/L pour-on, sheep, after 5 weeks): 83.4% | % Lice reduction ([2]; 25.0 g/L pour-on, sheep, after 10 weeks): 94.8% | % Lice reduction ([2]; 25.0 g/L pour-on, sheep, after 15 weeks): 96.4% | % Lice reduction ([2]; 25.0 g/L pour-on, sheep, after 20 weeks): 100.0% | Mean Lice Counts ([2]; 25.0 g/L, 20 mL backline (500 mg per sheep), 5 Merino wethers, week 0 (baseline)): 120.6 | Mean Lice Counts ([2]; 25.0 g/L, 20 mL backline, sheep, 2 weeks after treatment): 17.2 | Mean Lice Counts ([2]; 25.0 g/L, 20 mL backline, sheep, 5 weeks after treatment): 4.4 | Mean Lice Counts ([2]; 25.0 g/L, 20 mL backline, sheep, 10 weeks after treatment): 1.4 | Mean Lice Counts ([2]; 25.0 g/L, 20 mL backline, sheep, 15 weeks after treatment): 1.0 | Mean Lice Counts ([2]; 25.0 g/L, 20 mL backline, sheep, 20 weeks after treatment): 0.0 | Level of diflubenzuron residues in fat tissues, Inguinal fat ([3]; 1 day post treatment): <LOQ | Level of diflubenzuron residues in fat tissues, Inguinal fat ([3]; 3 days post treatment): <LOQ | Level of diflubenzuron residues in fat tissues, Inguinal fat ([3]; 7 days post treatment): <LOQ | Level of diflubenzuron residues in fat tissues, Peri-renal fat ([3]; 7 days post treatment): <LOQ | Level of diflubenzuron residues in fat tissues, Inguinal fat ([3]; 14 days post treatment): <LOQ | Level of diflubenzuron residues in fat tissues, Peri-renal fat ([3]; 14 days post treatment): <LOQ | concentration at 1 day ([3]; bovine, peri-renal fat, topical, 1 day post treatment, read-out: Level of diflubenzuron residues in fat tissues, Peri-renal fat): 170 ng/g | concentration at 3 days ([3]; bovine, peri-renal fat, topical, 3 days post treatment, read-out: Level of diflubenzuron residues in fat tissues, Peri-renal fat): 90 ng/g
